# Experimental data reported in patent US12264158B2, “Protein kinase MKK4 inhibitors for promoting liver regeneration or reducing or preventing hepatocyte death” (HEPAREGENIX GMBH, priority 2018, dated 2025).
# Experiments:
# Conditions in all cases: concentration of 100 nM
# MKK4 = molecular target: T1, MKK4 (Homo sapiens, UniProt P45985); assay: KINOMEscan competition binding assay, MKK4 potency
# T1 construct: S84/D399; host or cells: HEK-293
# T1 sequence (P45985 84-399): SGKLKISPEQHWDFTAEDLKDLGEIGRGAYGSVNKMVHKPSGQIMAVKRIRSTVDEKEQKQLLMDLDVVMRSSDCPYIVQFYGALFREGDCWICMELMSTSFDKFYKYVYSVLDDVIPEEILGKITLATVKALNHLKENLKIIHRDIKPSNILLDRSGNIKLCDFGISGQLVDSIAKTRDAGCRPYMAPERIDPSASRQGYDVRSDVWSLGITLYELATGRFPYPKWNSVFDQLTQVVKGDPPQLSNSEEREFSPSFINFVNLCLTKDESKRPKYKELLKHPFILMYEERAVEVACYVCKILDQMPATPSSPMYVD
# Method: (§1) The assay was performed by combining three components: DNA-tagged kinase; immobilized ligand; and a test compound. The ability of the test compound to compete with the immobilized ligand was measured via quantitative PCR of the DNA tag. The technology is described in detail in Fabian, M. A. et al. A small molecule-kinase interaction map for clinical kinase inhibitors. Nat. […] M. W. et al. A quantitative analysis of kinase inhibitor selectivity, Nat.
# (§2) For investigation of the affinity to MKK4, MKK7 and JNK1, the kinases were produced in HEK-293 cells and subsequently tagged with DNA for qPCR detection. […] The liganded beads were blocked with excess biotin and washed with blocking buffer (SEABLOCK™ (Pierce), 1% BSA, 0.05% TWEEN®20, 1 mM DTT) to remove unbound ligand and to reduce nonspecific binding. […] All reactions were performed in polystyrene 96-well plates in a final volume of 0.135 mL. […] The kinase concentration in the eluates was measured by qPCR.
# (§3) The test compounds were provided as 10 mM stock solutions. The test solutions at indicated final concentrations were prepared at DiscoverX.
# JNK1 = molecular target: T2, JNK1 (Homo sapiens, UniProt P45983); assay: KINOMEscan competition binding assay, selectivity against off-target JNK1
# T2 construct: M1/Q384; host or cells: HEK-293
# T2 sequence (P45983 1-384 isoform P45983-2): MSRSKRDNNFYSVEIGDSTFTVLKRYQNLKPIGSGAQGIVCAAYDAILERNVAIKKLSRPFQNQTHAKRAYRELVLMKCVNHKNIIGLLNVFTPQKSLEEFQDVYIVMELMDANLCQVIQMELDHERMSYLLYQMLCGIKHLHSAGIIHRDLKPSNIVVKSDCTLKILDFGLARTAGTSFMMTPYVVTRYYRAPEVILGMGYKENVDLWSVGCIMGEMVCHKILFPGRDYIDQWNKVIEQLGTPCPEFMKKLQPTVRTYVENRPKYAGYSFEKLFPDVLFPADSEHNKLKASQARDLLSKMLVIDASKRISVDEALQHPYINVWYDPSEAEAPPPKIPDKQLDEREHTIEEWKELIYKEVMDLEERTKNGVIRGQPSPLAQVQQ
# Method: as §1, §2, §3
# MKK7 = molecular target: T3, MKK7 (Homo sapiens, UniProt O14733); assay: KINOMEscan competition binding assay, selectivity against off-target MKK7
# T3 construct: M1/R419; host or cells: HEK-293
# T3 sequence (O14733 1-419): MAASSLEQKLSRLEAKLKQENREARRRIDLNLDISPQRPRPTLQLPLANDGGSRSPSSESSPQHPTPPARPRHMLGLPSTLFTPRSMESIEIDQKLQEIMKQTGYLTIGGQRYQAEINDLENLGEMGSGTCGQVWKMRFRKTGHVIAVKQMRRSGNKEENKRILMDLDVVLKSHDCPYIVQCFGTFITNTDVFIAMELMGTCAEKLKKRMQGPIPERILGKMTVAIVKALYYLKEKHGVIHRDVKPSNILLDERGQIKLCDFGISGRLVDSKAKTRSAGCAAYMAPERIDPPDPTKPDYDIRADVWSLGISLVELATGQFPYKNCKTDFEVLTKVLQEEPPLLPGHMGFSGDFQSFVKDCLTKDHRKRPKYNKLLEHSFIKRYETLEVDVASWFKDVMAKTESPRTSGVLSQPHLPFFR
# Method: as §1, §2, §3
# BRaf = BRaf (Homo sapiens, UniProt P15056); assay: KINOMEscan competition binding assay, selectivity against off-target BRaf
# Chain of BRaf (P15056 whole entry): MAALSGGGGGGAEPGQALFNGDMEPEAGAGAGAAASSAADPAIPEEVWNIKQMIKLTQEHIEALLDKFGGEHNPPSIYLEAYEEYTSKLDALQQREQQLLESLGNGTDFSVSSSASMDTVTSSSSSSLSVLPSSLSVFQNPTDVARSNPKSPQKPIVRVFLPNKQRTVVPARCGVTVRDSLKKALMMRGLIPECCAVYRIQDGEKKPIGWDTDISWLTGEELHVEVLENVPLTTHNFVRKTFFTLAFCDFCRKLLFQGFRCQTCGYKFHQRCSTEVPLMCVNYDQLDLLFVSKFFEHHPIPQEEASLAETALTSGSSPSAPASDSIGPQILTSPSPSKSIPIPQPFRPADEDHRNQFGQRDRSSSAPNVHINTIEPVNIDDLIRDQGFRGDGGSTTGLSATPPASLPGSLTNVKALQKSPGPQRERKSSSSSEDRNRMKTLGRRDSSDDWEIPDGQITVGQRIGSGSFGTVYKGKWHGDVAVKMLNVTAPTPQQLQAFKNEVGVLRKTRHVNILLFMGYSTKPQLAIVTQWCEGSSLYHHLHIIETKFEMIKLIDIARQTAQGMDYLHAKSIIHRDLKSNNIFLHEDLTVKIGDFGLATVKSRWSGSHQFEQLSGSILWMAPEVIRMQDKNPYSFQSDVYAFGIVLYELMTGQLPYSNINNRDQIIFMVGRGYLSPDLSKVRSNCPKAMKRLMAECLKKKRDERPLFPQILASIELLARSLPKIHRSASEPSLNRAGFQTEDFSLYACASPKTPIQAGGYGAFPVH
# Method: as §1, §3
SMILES,"MKK4, residual percent of control binding (PoC) (MKK4)","Selectivity vs. JNK1, ratio PoC(JNK1)/PoC(MKK4) (JNK1)","Selectivity vs. MKK7, ratio PoC(MKK7)/PoC(MKK4) (MKK7)","Selectivity vs. BRaf, ratio PoC(BRaf)/PoC(MKK4) (BRaf)"
"CCCS(=O)(=O)Nc1ccc(F)c(C(=O)c2n[nH]c3ncc(-c4ccc(C(F)(F)F)cc4)cc23)c1F [Example 34, N-(2,4-difluoro-3-(5-(4-(trifluoromethyl)phenyl)-1H-pyrazolo[3,4-b]pyridine-3-carbonyl)-phenyl)propane-1-sulfonamide]",+ (10 ≤ PoC < 30),O (PoC(JNK1)/PoC(MKK4) < 3),+ (10 > PoC(MKK7)/PoC(MKK4) ≥ 3),O (PoC(BRaf)/PoC(MKK4) < 3)
"CCCCS(=O)(=O)Nc1cccc(C(=O)c2n[nH]c3ncc(-c4ccc5c(c4)OCCO5)cc23)c1F [Example 43, N-(3-(5-(2,3-dihydro-benzo-[b][1,4]dioxin-6-yl)-1H-pyrazolo[3,4-b]-pyridine-3-carbonyl)-2-fluorophenyl)-butane-1-sulfonamide]",+ (10 ≤ PoC < 30),+ (10 > PoC(JNK1)/PoC(MKK4) ≥ 3),+ (10 > PoC(MKK7)/PoC(MKK4) ≥ 3),+ (10 > PoC(BRaf)/PoC(MKK4) ≥ 3)
"CCCS(=O)(=O)Nc1ccc(F)c(C(=O)c2n[nH]c3ncc(-c4cccc(Cl)c4)cc23)c1F [Example 7, N-(3-(5-(3-chlorophenyl)-1H-pyrazolo[3,4-b]pyridine-3-carbonyl)-2,4-difluorophenyl)-propane-1-sulfonamide]",O (PoC ≥ 30),O (PoC(JNK1)/PoC(MKK4) < 3),O (PoC(MKK7)/PoC(MKK4) < 3),O (PoC(BRaf)/PoC(MKK4) < 3)
"CCCS(=O)(=O)Nc1ccc(F)c(C(=O)c2n[nH]c3ncc(-c4cccc(C(F)(F)F)c4)cc23)c1F [Example 30, N-(2,4-difluoro-3-(5-(3-(trifluoromethyl)phenyl)-1H-pyrazolo[3,4-b]pyridine-3-carbonyl)phenyl)propane-1-sulfonamide]",O (PoC ≥ 30),O (PoC(JNK1)/PoC(MKK4) < 3),O (PoC(MKK7)/PoC(MKK4) < 3),O (PoC(BRaf)/PoC(MKK4) < 3)
"CCCS(=O)(=O)Nc1ccc(F)c(C(=O)c2n[nH]c3ncc(-c4cccc(N(C)C)c4)cc23)c1F [Example 28, N-(3-(5-(3-(dimethyl-amino)phenyl)-1H-pyrazo-lo[3,4-b]pyridine-3-carbonyl)-2,4-difluoro-phenyl)propane-1-sulfonamide]",+ (10 ≤ PoC < 30),+ (10 > PoC(JNK1)/PoC(MKK4) ≥ 3),+ (10 > PoC(MKK7)/PoC(MKK4) ≥ 3),O (PoC(BRaf)/PoC(MKK4) < 3)
"CCCS(=O)(=O)Nc1ccc(F)c(Sc2n[nH]c3ncc(-c4ccc(Cl)cc4)cc23)c1F [Example 46, N-(3-((5-(4-chlorophenyl)-1H-pyrazolo[3,4-b]pyridin-3-yl)thio)-2,4-difluorophenyl)propane-1-sulfonamide]",O (PoC ≥ 30),O (PoC(JNK1)/PoC(MKK4) < 3),O (PoC(MKK7)/PoC(MKK4) < 3),O (PoC(BRaf)/PoC(MKK4) < 3)
"CCCS(=O)(=O)Nc1ccc(F)c(C(=O)c2n[nH]c3ncc(-c4ccc(C)cc4)cc23)c1F [Example 20, N-(2,4-difluoro-3-(5-p-tolyl-1H-pyrazolo[3,4-b]pyridine-3-carbonyl)phenyl)propane-1-sulfonamide]",++ (1 ≤ PoC < 10),++ (30 > PoC(JNK1)/PoC(MKK4) ≥ 10),++ (30 > PoC(MKK7)/PoC(MKK4) ≥ 10),O (PoC(BRaf)/PoC(MKK4) < 3)
"CCCS(=O)(=O)Nc1ccc(F)c(C(=O)c2n[nH]c3ncc(-c4ccc(Cl)c(C(F)(F)F)c4)cc23)c1F [Example 36, N-(3-(5-(4-chloro-3-(trifluoromethyl)phenyl)-1H-pyrazolo[3,4-13]-pyridine-3-carbonyl)-2,4-difluorophenyl)-propane-1-sulfonamide]",+ (10 ≤ PoC < 30),+ (10 > PoC(JNK1)/PoC(MKK4) ≥ 3),+ (10 > PoC(MKK7)/PoC(MKK4) ≥ 3),O (PoC(BRaf)/PoC(MKK4) < 3)
"CCCS(=O)(=O)Nc1ccc(F)c(C(=O)c2n[nH]c3ncc(-c4ccc(C(C)(C)C)cc4)cc23)c1F [Example 10, N-(3-(5-(4-tert-butylphenyl)-1H-pyrazolo[3,4-b]pyridine-3-carbonyl)-2,4-difluoro-phenyl)propane-1-sulfon-amide]",O (PoC ≥ 30),O (PoC(JNK1)/PoC(MKK4) < 3),O (PoC(MKK7)/PoC(MKK4) < 3),O (PoC(BRaf)/PoC(MKK4) < 3)
"CCCS(=O)(=O)Nc1ccc(F)c(C(=O)c2n[nH]c3ncc(-c4cccc(C)c4)cc23)c1F [Example 29, N-(2,4-difluoro-3-(5-m-tolyl-1H-pyrazolo[3,4-b]pyridine-3-carbonyl)phenyl)propane-1-sulfonamide]",+ (10 ≤ PoC < 30),+ (10 > PoC(JNK1)/PoC(MKK4) ≥ 3),+ (10 > PoC(MKK7)/PoC(MKK4) ≥ 3),O (PoC(BRaf)/PoC(MKK4) < 3)
"CCCS(=O)(=O)Nc1ccc(F)c(S(=O)(=O)c2n[nH]c3ncc(-c4ccc(Cl)cc4)cc23)c1F [Example 48, N-(3-((5-(4-chlorophenyl)-1H-pyrazolo[3,4-b]pyridin-3-yl)sulfonyl)-2,4-difluorophenyl)propane-1-sulfonamide]",O (PoC ≥ 30),O (PoC(JNK1)/PoC(MKK4) < 3),O (PoC(MKK7)/PoC(MKK4) < 3),O (PoC(BRaf)/PoC(MKK4) < 3)
"CCCS(=O)(=O)Nc1ccc(F)c(C(=O)c2n[nH]c3ncc(-c4ccc(Cl)c(Cl)c4)cc23)c1F [Example 33, N-(3-(5-(3,4-dichloro-phenyl)-1H-pyrazolo[3,4-b]pyridine-3-carbonyl)-2,4-difluoro-phenyl)-propane-1-sulfon-amide]",O (PoC ≥ 30),O (PoC(JNK1)/PoC(MKK4) < 3),O (PoC(MKK7)/PoC(MKK4) < 3),O (PoC(BRaf)/PoC(MKK4) < 3)
